Results taken from PMC7312375, “A Novel, Pan-PDE Inhibitor Exerts Anti-Fibrotic Effects in Human Lung Fibroblasts via Inhibition of TGF-β Signaling and Activation of cAMP/PKA Signaling” (International Journal of Molecular Sciences, 2020).
One block for each compound: values may come before it.

Key:
[1] = tested on: TGF-β1-induced MRC-5 cells; assay: qPCR of myofibroblast marker genes in TGF-β1-induced MRC-5; format: cell-based, human; settings: 10 µM, 24 h TGF-β1 5 ng/mL; compared to TGF-β1 alone
Experimental: Quantitative polymerase chain reaction (qPCR) was performed to assess the expression level of selected human genes: ACTA2, MYH11, SM22, COL1A1, TNC, FN1, and VCAN. MRC-5 cells were preincubated with study compounds (10 µM) for 1 h, followed by 24 h incubation with TGF-β1, and then total RNA was extracted using Total RNA Mini Kit (A&A Biotechnology, Gdynia, Poland) according to the manufacturer’s protocol. RNA concentration was measured with a BioSpectrometer® basic (Eppendorf), and equal amounts of total RNA (about 1 µg) were reverse-transcribed using the iScript™ cDNA Synthesis Kit (BioRad, Hercules, CA, USA). qPCR assays were performed using the CFX96 Touch Real-Time PCR Detection System (BioRad, Hercules, CA, USA) and SsoAdvanced^TM Universal SYBR® Green Supermix (BioRad, Hercules, CA, USA). qPCR cycling was performed with denaturation at 94 °C for 30 s, annealing at 59 °C for 30 s and an extension at 72 °C for 30 s. The relative abundance of specific mRNA transcripts was estimated based on cycle threshold (Ct) value and recalculated against the endogenous reference 18S ribosomal RNA gene (18S rRNA) using the ∆Ct method. The experiments were run three times in duplicates.

PDE8A = biological target: T1, PDE8A (Homo sapiens, UniProt O60658); assay: PDE-Glo assay, human recombinant PDE8A; format: biochemical; settings: n.a. = not active; read-out: PDE-IC50 8A
T1 construct: purchased SignalChem
T1 sequence (O60658 whole entry): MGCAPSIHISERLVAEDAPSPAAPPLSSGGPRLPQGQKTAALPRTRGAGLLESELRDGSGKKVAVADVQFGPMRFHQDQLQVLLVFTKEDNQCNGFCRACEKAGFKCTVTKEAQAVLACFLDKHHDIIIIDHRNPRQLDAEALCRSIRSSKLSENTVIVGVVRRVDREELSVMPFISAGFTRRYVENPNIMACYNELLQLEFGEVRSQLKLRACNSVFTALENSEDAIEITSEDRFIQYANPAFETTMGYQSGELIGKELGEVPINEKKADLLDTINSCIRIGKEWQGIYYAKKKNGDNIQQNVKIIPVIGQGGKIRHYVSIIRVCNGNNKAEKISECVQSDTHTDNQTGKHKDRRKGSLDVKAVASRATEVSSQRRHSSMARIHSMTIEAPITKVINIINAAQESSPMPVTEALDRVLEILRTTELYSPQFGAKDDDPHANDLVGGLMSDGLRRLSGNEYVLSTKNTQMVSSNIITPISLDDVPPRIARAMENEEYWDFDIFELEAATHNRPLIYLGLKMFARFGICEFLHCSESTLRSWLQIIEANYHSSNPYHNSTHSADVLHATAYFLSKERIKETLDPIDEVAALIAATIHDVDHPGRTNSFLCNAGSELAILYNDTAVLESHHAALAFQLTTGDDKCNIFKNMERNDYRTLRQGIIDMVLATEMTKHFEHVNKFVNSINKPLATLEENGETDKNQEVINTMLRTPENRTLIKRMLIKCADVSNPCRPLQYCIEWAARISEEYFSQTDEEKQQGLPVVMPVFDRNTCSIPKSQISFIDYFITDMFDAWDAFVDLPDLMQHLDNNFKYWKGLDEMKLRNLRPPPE
Experimental: (§1) Inhibitory activities of the investigated compounds against various subtypes of human recombinant (hr)PDEs, namely PDE1A, PDE1B, PDE1C, PDE3A, PDE3B, PDE4A, PDE4B, PDE4D, PDE7A, and PDE8A were assessed using a PDE-Glo^TM Assay Kit (Promega, Madison, WI, USA) according to the protocol provided by the manufacturer. Briefly, appropriate amounts of each enzyme (SignalChem, Richmond, B.C., Canada), diluted with PDE-Glo reaction buffer, were distributed on a 384-well plate (Thermo Scientific, Waltham, MA, USA). The investigated compounds were dissolved in DMSO, diluted with the same vehicle, and mixed with the reaction buffer at a v/v ratio of 1:5. Thereafter, 1 µL of these mixtures and 2.5 µL of the cAMP solution as a substrate were added. The final cAMP concentration was 0.05 µM. The samples were incubated for 10 min at 30 °C. […] Finally, 10 µL of PDE-Glo kinase reagent was added, and luminescence was measured using the POLARstar Omega plate reader (BMG LABTECH, Ortenberg, Germany). […] The relative activities (A, %) of all samples were calculated from the following equation: A = [(LUsample − LUblank)/(LUcontrol − LUblank)]·100%; where LUcontrol is the luminescence of a control sample in the absence of a PDE inhibitor, LUsample is a luminescence of an investigated sample in the presence of an inhibitor, and LUblank is a luminescence of a sample in the absence of enzyme (activity = 0). […]

[2] = tested on: TGF-β1-induced MRC-5 cells; assay: Western blot of p-CREB; format: cell-based, human; settings: 10 µM
Experimental: Western Blot analysis was performed according to a standard protocol. Briefly, MRC-5 cells were pre-incubated with the study compounds (10 µM) for 1 h, followed by 48 h incubation with TGF-β1 and then lysed in RIPA buffer (RIPA Lysis and Extraction Buffer, Thermo Fisher Scientific, Waltham, MA, USA) and supplemented with protease inhibitor cocktail and phosphatase inhibitor cocktail (both from Sigma Aldrich, St. Louis, MO, USA). Equal amounts of protein (30 µg) were separated using 10% SDS-polyacrylamide gels and transferred onto polyvinylidene difluoride (PVDF) membranes (Thermo Fisher Scientific, Waltham, MA, USA). […] ROD was measured according to the NIH guidelines with Fiji ImageJ Software. […]

PDE4D = biological target: T2, PDE4D (Homo sapiens, UniProt Q08499); parameters: method as in PMID 31705904; settings: published previously; read-out: PDE-IC50 4D; cited from earlier work
T2 construct: purchased SignalChem
T2 sequence (Q08499 whole entry): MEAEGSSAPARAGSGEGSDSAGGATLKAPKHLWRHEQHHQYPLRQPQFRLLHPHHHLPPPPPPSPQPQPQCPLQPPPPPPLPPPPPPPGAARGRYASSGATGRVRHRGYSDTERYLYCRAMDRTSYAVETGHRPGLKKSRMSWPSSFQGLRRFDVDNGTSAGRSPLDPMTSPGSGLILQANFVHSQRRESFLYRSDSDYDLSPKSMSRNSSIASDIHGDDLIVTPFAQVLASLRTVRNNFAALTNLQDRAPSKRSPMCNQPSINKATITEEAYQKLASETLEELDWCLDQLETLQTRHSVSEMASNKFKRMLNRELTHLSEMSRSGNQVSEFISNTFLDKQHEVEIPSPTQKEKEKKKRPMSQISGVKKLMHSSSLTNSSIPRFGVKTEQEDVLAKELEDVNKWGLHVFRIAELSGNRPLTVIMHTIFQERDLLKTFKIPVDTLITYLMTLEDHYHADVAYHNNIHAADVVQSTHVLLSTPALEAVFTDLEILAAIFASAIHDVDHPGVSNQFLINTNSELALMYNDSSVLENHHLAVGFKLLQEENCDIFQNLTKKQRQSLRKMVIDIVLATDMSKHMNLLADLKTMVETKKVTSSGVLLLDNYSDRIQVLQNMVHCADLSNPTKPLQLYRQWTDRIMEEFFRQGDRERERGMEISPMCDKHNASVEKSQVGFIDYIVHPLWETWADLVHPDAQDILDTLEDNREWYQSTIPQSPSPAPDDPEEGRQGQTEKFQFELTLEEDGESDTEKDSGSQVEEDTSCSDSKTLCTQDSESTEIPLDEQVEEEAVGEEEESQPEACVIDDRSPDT

PDE1B = biological target: T3, PDE1B (Homo sapiens, UniProt Q01064); assay: PDE-Glo assay, human recombinant PDE1B; format: biochemical; settings: n.a. = not active; read-out: PDE-IC50 1B
T3 construct: purchased SignalChem
T3 sequence (Q01064 whole entry): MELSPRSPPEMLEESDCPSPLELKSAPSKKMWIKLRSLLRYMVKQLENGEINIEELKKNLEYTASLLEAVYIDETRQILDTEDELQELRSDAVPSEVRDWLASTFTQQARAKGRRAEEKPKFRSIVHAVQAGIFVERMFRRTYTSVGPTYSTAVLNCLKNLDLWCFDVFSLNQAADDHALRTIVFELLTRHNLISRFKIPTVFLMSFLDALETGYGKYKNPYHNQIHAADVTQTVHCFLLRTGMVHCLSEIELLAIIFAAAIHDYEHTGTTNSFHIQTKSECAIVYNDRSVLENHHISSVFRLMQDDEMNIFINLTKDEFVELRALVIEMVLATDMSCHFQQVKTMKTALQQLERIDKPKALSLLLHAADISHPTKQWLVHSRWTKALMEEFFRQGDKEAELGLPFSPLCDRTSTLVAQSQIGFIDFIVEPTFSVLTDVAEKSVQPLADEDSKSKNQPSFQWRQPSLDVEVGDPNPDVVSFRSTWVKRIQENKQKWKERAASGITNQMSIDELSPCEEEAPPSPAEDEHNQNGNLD
Experimental: as §1

PDE3A = biological target: T4, PDE3A (Homo sapiens, UniProt Q14432); assay: PDE-Glo assay, human recombinant PDE3A; format: biochemical; settings: n.a. = not active; read-out: PDE-IC50 3A
T4 construct: purchased SignalChem
T4 sequence (Q14432 whole entry): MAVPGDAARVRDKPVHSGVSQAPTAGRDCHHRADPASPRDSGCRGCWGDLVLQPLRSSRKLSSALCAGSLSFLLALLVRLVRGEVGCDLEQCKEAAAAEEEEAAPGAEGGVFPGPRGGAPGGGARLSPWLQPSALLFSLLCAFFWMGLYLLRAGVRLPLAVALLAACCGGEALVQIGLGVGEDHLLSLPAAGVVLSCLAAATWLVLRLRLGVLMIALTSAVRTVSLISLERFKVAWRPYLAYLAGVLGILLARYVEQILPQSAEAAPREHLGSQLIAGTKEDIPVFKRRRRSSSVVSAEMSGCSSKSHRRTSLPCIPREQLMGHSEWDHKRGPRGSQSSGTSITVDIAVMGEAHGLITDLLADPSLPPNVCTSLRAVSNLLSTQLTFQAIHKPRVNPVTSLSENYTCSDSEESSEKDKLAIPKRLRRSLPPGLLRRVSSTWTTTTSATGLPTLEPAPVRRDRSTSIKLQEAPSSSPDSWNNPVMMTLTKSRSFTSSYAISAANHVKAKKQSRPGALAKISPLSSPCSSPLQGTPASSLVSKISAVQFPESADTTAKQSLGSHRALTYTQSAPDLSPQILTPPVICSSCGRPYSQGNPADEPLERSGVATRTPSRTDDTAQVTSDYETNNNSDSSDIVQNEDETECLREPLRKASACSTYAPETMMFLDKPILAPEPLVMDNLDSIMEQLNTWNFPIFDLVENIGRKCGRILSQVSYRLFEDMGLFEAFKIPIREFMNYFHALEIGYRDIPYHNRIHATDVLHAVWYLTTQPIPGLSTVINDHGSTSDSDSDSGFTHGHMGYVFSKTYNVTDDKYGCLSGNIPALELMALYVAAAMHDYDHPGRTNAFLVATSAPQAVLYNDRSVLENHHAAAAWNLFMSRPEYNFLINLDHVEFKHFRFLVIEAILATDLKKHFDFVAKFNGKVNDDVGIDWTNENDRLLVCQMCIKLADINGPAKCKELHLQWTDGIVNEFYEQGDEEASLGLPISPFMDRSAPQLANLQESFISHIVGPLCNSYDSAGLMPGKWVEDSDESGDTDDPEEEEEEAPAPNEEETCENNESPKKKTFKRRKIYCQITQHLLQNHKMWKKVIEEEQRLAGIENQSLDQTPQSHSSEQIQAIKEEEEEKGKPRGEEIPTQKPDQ
Experimental: as §1

PDE4B = biological target: T5, PDE4B (Homo sapiens, UniProt Q07343); settings: published previously; read-out: PDE-IC50 4B; cited from earlier work
T5 construct: purchased SignalChem
T5 sequence (Q07343 whole entry): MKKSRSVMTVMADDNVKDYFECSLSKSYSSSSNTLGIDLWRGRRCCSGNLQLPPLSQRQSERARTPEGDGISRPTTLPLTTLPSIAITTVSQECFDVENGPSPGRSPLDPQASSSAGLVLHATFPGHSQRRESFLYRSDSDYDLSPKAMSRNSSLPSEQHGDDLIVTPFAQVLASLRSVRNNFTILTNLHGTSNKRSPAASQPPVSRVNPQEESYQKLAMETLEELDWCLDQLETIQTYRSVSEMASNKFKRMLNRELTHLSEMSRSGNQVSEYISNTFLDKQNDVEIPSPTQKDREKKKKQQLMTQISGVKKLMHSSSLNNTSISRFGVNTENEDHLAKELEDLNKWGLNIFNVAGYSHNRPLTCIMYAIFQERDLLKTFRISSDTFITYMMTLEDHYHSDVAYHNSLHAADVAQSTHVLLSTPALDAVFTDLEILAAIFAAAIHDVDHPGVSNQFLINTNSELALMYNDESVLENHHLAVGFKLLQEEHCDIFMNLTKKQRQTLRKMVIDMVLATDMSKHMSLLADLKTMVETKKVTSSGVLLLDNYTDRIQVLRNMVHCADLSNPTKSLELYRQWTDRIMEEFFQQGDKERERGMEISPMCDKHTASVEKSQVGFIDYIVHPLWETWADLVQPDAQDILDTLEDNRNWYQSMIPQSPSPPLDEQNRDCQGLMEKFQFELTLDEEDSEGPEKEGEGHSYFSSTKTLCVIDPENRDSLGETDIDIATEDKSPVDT

PDE7A = biological target: T6, PDE7A (Homo sapiens, UniProt Q13946); settings: published previously; read-out: PDE-IC50 7A; cited from earlier work
T6 construct: purchased SignalChem
T6 sequence (Q13946 whole entry): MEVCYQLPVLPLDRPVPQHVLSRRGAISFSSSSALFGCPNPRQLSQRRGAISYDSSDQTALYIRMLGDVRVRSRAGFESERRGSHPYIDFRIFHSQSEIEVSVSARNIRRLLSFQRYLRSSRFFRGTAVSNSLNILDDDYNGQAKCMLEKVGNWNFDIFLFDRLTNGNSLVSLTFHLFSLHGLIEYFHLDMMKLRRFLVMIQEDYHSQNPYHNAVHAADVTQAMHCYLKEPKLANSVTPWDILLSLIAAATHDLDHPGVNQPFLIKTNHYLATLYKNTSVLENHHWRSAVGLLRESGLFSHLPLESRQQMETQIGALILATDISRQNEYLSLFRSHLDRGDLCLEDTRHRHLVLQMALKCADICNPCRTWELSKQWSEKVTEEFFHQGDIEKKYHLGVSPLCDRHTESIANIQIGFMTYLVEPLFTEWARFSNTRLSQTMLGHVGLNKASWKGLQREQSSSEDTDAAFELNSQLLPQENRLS

SMILES: CCCCOc1nc2c(c(=O)n(C)c(=O)n2C)n1CCCC(=O)Nc1cc(C(C)(C)C)ccc1O [Compound 145, 4-(8-butoxy-1,3-dimethyl-2,6-dioxo-1,2,3,6-tetrahydro-7H-purin-7-yl)-N-(5-(tert-butyl)-2-hydroxyphenyl)butanamide]
decrease in TGF-β1-induced expression of ACTA2 [1]: two-fold | decrease in TGF-β1-induced expression of COL1A1 [1]: four-fold | decrease in TGF-β1-induced expression of MYH11 [1]: five-fold | decrease in TGF-β1-induced expression of SM22 [1]: nine-fold | decrease in TGF-β1-induced expression of TNC [1]: five-fold | IC50 (PDE8A): 73.2 µM | CREB phosphorylation (immunoblot) [2]: increased CREB phosphorylation | IC50 (PDE4D): 13.8 µM

IC50 (PDE1B): 40 nM | IC50 (PDE3A): 125 nM
SMILES: Cn1c(=O)c2c(nc(NCc3ccco3)n2CCCC(=O)NN=Cc2ccc(O)cc2O)n(C)c1=O [Compound 832, N′-(2,4-dihydroxybenzylidene)-4-(8-((furan-2-ylmethyl)amino)-1,3-dimethyl-2,6-dioxo-1,2,3,6-tetrahydro-7H-purin-7-yl)butanehydrazide]
IC50 (PDE4B): 4.4 µM | IC50 (PDE7A): 10.5 µM
